Measurements as given in the supplement of paper PMC10307832.

Experiments:
Test in all cases: relative viability (nuclei count vs DMSO), 5 days (fraction); higher = more cells survive
Afatinib + Trametinib = compound: CN(C)C/C=C/C(=O)Nc1cc2c(Nc3ccc(F)c(Cl)c3)ncnc2cc1O[C@H]1CCOC1 [Afatinib] + CC(=O)Nc1cccc(-n2c(=O)n(C3CC3)c(=O)c3c(Nc4ccc(I)cc4F)n(C)c(=O)c(C)c32)c1 [Trametinib] (partner 0.02 µM)
Procedure, shortened: (§1)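 Relative viability equals treated-well nuclei counts divided by vehicle-well nuclei counts. Counts came from 4× images of lung cancer cell lines grown in 1536-well plates for 5 days after pin-tool dosing on the day after seeding. Dosing used one drug alone or a fixed anchor-drug dose plus five library-drug doses (not always all listed) in √10 steps, and values are medians of duplicate plates.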

Afatinib + OSI-027 = compound: CN(C)C/C=C/C(=O)Nc1cc2c(Nc3ccc(F)c(Cl)c3)ncnc2cc1O[C@H]1CCOC1 [Afatinib] + COc1cccc2cc(-c3nc([C@H]4CC[C@H](C(=O)O)CC4)n4ncnc(N)c34)[nH]c12 [OSI-027] (partner 0.5 µM)
Procedure, shortened: as §1

Afatinib + Lapatinib = compound: CN(C)C/C=C/C(=O)Nc1cc2c(Nc3ccc(F)c(Cl)c3)ncnc2cc1O[C@H]1CCOC1 [Afatinib] + CS(=O)(=O)CCNCc1ccc(-c2ccc3ncnc(Nc4ccc(OCc5cccc(F)c5)c(Cl)c4)c3c2)o1 [Lapatinib] (partner 2 µM)
Procedure, shortened: as §1

Afatinib + Linsitinib = compound: CN(C)C/C=C/C(=O)Nc1cc2c(Nc3ccc(F)c(Cl)c3)ncnc2cc1O[C@H]1CCOC1 [Afatinib] + C[C@]1(O)C[C@@H](c2nc(-c3ccc4ccc(-c5ccccc5)nc4c3)c3c(N)nccn32)C1 [Linsitinib] (partner 1 µM)
Procedure, shortened: as §1

Cell Line | relative viability (Afatinib + Trametinib; first compound 0.005 µM) | relative viability (Afatinib + Trametinib; first compound 0.01581 µM) | relative viability (Afatinib + Trametinib; first compound 0.05 µM) | relative viability (Afatinib + Trametinib; first compound 0.1581 µM) | relative viability (Afatinib + Trametinib; first compound 0.5 µM) | relative viability (Afatinib + OSI-027; first compound 0.005 µM) | relative viability (Afatinib + OSI-027; first compound 0.01581 µM) | relative viability (Afatinib + OSI-027; first compound 0.05 µM) | relative viability (Afatinib + OSI-027; first compound 0.1581 µM) | relative viability (Afatinib + OSI-027; first compound 0.5 µM) | relative viability (Afatinib + Lapatinib; first compound 0.005 µM) | relative viability (Afatinib + Lapatinib; first compound 0.01581 µM) | relative viability (Afatinib + Lapatinib; first compound 0.05 µM) | relative viability (Afatinib + Lapatinib; first compound 0.5 µM) | relative viability (Afatinib + Linsitinib; first compound 0.005 µM) | relative viability (Afatinib + Linsitinib; first compound 0.01581 µM) | relative viability (Afatinib + Linsitinib; first compound 0.05 µM) | relative viability (Afatinib + Linsitinib; first compound 0.5 µM) | relative viability (Afatinib + Lapatinib; first compound 0.1581 µM) | relative viability (Afatinib + Linsitinib; first compound 0.1581 µM)
NCI-H1666 | 0.673 | 0.648 | 0.776 | 0.815 | 0.791 | 0.88 | 0.759 | 0.657 | 0.581 | 0.612 | 0.592 | 0.621 | 0.618 | 0.834 | 0.724 | 0.743 | 0.56 | 0.561 |  | 
NCI-H1734 | 0.684 | 0.671 | 0.715 | 0.683 | 0.692 | 0.671 | 0.624 | 0.587 | 0.57 | 0.511 | 1.06 | 1.01 | 1.06 | 1.09 | 0.9 | 0.75 | 0.931 | 0.771 | 1.01 | 0.865
NCI-H1755 | 0.767 | 0.792 | 0.807 | 0.679 | 0.792 | 0.736 | 0.754 | 0.845 | 0.627 | 0.668 | 1.11 | 1.03 | 1.09 | 1.07 | 0.979 | 0.992 | 0.997 | 0.995 | 1.04 | 0.938
NCI-H1792 | 0.56 | 0.393 | 0.562 | 0.538 | 0.427 | 0.662 | 0.762 | 0.707 | 0.672 | 0.735 | 0.999 | 0.783 | 0.825 | 0.971 | 0.533 | 0.616 | 0.497 | 0.484 | 0.972 | 0.533
NCI-H1793 | 0.436 | 0.377 | 0.432 | 0.345 | 0.401 | 0.237 | 0.211 | 0.168 | 0.233 | 0.146 | 0.679 | 0.733 | 0.962 | 0.467 | 0.566 | 0.431 | 0.61 | 0.514 | 0.995 | 0.461
NCI-H1915 | 0.309 | 0.304 | 0.314 | 0.3 | 0.301 | 0.742 | 0.613 | 0.602 | 0.611 | 0.469 | 1.02 | 0.944 | 0.994 | 0.876 | 1.13 | 1.08 | 1.11 | 1.07 | 0.959 | 1.07
NCI-H1944 | 0.431 | 0.373 | 0.358 | 0.259 | 0.298 | 0.429 | 0.329 | 0.328 | 0.311 | 0.327 | 0.884 | 0.795 | 0.691 | 0.858 | 1.04 | 0.904 | 0.776 | 0.571 | 0.799 | 0.566
NCI-H1975 | 0.342 | 0.288 | 0.407 | 0.242 | 0.195 | 0.81 | 0.644 | 0.688 | 0.303 | 0.147 | 0.895 | 0.685 | 0.529 | 0.239 | 0.901 | 1.1 | 0.794 | 0.217 | 0.283 | 0.261
NCI-H1993 | 0.593 | 0.442 | 0.58 | 0.546 | 0.53 | 0.519 | 0.588 | 0.674 | 0.697 | 0.564 | 0.835 | 0.848 | 1.11 | 0.848 | 0.714 | 0.736 | 0.803 | 0.696 | 1.01 | 0.822
NCI-H2009 | 0.314 | 0.217 | 0.319 | 0.268 | 0.247 | 0.635 | 0.633 | 0.714 | 0.516 | 0.459 | 0.964 | 0.934 | 1.07 | 1.01 | 1.23 | 1.14 | 1.23 | 1.22 | 0.995 | 1.13
NCI-H2023 | 0.527 | 0.505 | 0.489 | 0.398 | 0.393 | 0.38 | 0.354 | 0.394 | 0.351 | 0.279 | 0.744 | 0.853 | 0.896 | 0.964 | 0.577 | 0.494 | 0.453 | 0.414 | 0.809 | 0.355
NCI-H2085 | 0.433 | 0.507 | 0.692 | 0.513 | 0.457 | 0.71 | 0.61 | 0.541 | 0.366 | 0.366 | 0.857 | 0.762 | 0.851 | 0.76 | 0.726 | 0.773 | 0.769 | 0.675 | 0.743 | 0.417
NCI-H2087 | 0.223 | 0.147 | 0.183 | 0.117 | 0.15 | 0.731 | 0.507 | 0.652 | 0.753 | 0.383 | 0.973 | 1.07 | 1.09 | 0.929 | 0.985 | 0.916 | 1.01 | 0.986 | 0.946 | 0.918
NCI-H2126 | 0.529 | 0.585 | 0.493 | 0.462 | 0.459 | 0.732 | 0.641 | 0.547 | 0.494 | 0.415 | 0.779 | 0.688 | 0.686 | 0.799 | 0.724 | 0.701 | 0.583 | 0.424 | 0.761 | 0.465
NCI-H2228 | 0.833 | 0.395 | 0.544 | 0.467 | 0.466 | 0.546 | 0.418 | 0.589 | 0.638 | 0.545 | 1.29 | 1.01 | 0.958 | 1.03 | 0.604 | 0.778 | 0.631 | 0.502 |  | 
NCI-H2347 | 0.27 | 0.292 | 0.277 | 0.275 | 0.283 | 0.403 | 0.46 | 0.393 | 0.364 | 0.373 | 0.934 | 0.985 | 0.832 | 0.996 | 1.04 | 0.933 | 1.03 | 1.03 | 0.987 | 1.08
